The nature of series [1]: Aqueous solubility by UV/Vis spectroscopy. The conditions noted are these: for Solubility / Radical Anion Solubility: aqueous; for Solubility: dianionic state (disodium salt); for Radical Anion Solubility: radical anionic state. Format: physicochemical. As for the experimental part:
One nitrile group was systematically substituted at a time in an effort to preserve the favorable oxidation potential of the redox couple. To this end, a series of asymmetric, ester-substituted, [3] radialene species (FIG. 3, Compounds 1-4) were prepared via the zwitterionic synthetic method. The aqueous solubilities of these compounds in both the dianionic and radical anionic states were determined using UV/Vis spectroscopy (Table 1).

Series [2] in a line: Cyclic voltammetry in water (GC working electrode, Ag/AgCl reference). Format: physicochemical. The conditions noted are these: for E^ox1/2 / ipc/ipa: in water. The source says:
FIG. 2A provides cyclic voltammograms of a hexasubstituted radialene dianion ([…]) using a glassy carbon (GC) working electrode, platinum auxiliary electrode, and Ag/AgCl reference electrode measured at various scan rates (10-700 mV/s) in water.
(§1) Hexacyano[3] radialene was initially used as a model system to probe the efficacy of hexasubstituted radialenes as redox couples in pH 7 aqueous solutions. A prerequisite for a practical aqueous catholyte is a high oxidation potential that occurs within the electrochemical window of water. The electrochemistry of [C6(CN)6]^2− as a tetrabutylammonium (TBA) salt in organic solvents only. […] Using cyclic voltammetry (CV), it was first established that the one electron oxidation of the dianion to the radical anion occurs at a potential favorable for use as a catholyte for RFBs, 480 mV.
(§2) This value was almost identical to the diffusion coefficients of hydrophilic ferrocene derivatives in neutral pH solutions of NaCl. […] Such chemical stability is essential for durable RFB electrolytes.

Series [3] is described as follows: Conductivity of aqueous solutions. The format is physicochemical. As to conditions: for Conductivity: first value of the pair; for Conductivity (value in parentheses): not defined in the patent.
Series [4] is classed as physicochemical.
From the text: as §1, §2
Diester compound 3 was selected for further analysis due to its favorable solubility in both redox states and its adequate oxidation potential in water. Electrochemical studies of compound 3 were performed to gauge its stability and galvanostatic cycling performance in aqueous solution. […] This assuages concerns of the possibility of ester hydrolysis. Next, a symmetrical H-cell with a cation-exchange membrane separator was used for aqueous galvanostatic charge-discharge experiments (FIG. 4B). The compound 3 undergoes steady cycling over a period of 12 days (50 cycles). […] The higher relative capacity retention was ascribed to the asymmetry and non-planarity of the diester congener, which helps limit dimerization interactions.

For series [5] the following is noted: reported catholytes for neutral aqueous RFBs; cited from earlier work.
Series [6] in a line: Stability in air and thermal stability. Format: physicochemical. The source says: Hexacyano[3] radialene (Na2C6(CN)6), compound 1 in FIG. 3, was synthesized at low temperatures, on a large scale, and in high yield (for example 45 g, 91%). This convenient synthesis uses inexpensive precursors (tetrachlorcyclopropene (TCCP) and malononitrile), reagents (sodium hydride), and solvent (glyme). […] Furthermore, this compound is stable in air, and can be sequentially oxidized in two single-electron transfers. The product of the first oxidation, radical anion the compound ·- is particularly persistent. […] Remarkably, the radical anion is thermally stable to above 180° C. The inherent stability of the compound and persistence of the radical anion ·- signifies that the redox couple is favorable for use in a RFB, a device in which long lifespan is required. Finally, aqueous solutions of the dianion are colorless, while the radical anion produces a deep blue color when dissolved. This is advantageous for visually following the charge-discharge characteristics of proposed RFBs.

A short description of series [7]: Cyclic voltammetry in water (GC working electrode, Ag/AgCl reference). Format: physicochemical. The conditions noted are these: Randles-Sevcik equation, scan rates 0-700 mV/s.

One may read the Solubility as the concentration that dissolves in the medium under given conditions.

Take `COC(=O)C(C#N)=C1C([C-](C#N)C(=O)OC)=C1[C-](C#N)C(=O)OC.[Na+].[Na+]` (stereo not drawn) [Compound 4]: in series [1], the Solubility was determined as 0.82 M and the “Radical Anion Solubility” value is on record as below 25 mM. In series [2], the “E^ox1/2” value came out at 0.27 V and the ipc/ipa amounted to 1.15. Further, in series [3], the Conductivity is listed as 39 mS/cm and the “Conductivity (value in parentheses)” value was “(0.23) mS/cm”.
For `COC(=O)[C-](C#N)C1=C([C-](C#N)C(=O)OC)C1=C(C#N)C#N.[Na+].[Na+]` (stereo not drawn) [Compound 3, diester-tetracyano [3] radialene dianion], in series [1], the Solubility turned out to be 0.45 M and the “Radical Anion Solubility” value was found to be 170 mM. For the same compound, the solubility in water in series [1] (disodium salt) was 0.85 M. Moreover, in series [2], the “E^ox1/2” value was determined as 0.35 V and the ipc/ipa is listed as 1.06. Moreover, the “conductivity of aqueous solutions without supporting electrolyte” value in series [3] (0.1 M, without NaCl) is recorded as “sufficiently conductive”. Besides, in series [3], the Conductivity is given as 36.7 mS/cm and the “Conductivity (value in parentheses)” value was “(23.2) mS/cm”. The “stability of dianion in water” value in series [4] is reported as “stable in water”.
For the compound `CC1(C)CC(O)CC(C)(C)N1[O]` [4-hydroxy-TEMPO], the oxidation potential in series [5] was 610 mV.
For the compound `COC(=O)C(C#N)=C1C([C-](C#N)C#N)=C1[C-](C#N)C#N.[Na+].[Na+]` [Compound 2], in series [1], the Solubility was 0.19 M and the “Radical Anion Solubility” value amounted to 80 mM. In series [2], the “E^ox1/2” value amounted to 0.4 V and the ipc/ipa is on record as 0.97. In series [3], the Conductivity worked out at 15.7 mS/cm and the “Conductivity (value in parentheses)” value was “(2.36) mS/cm”.
With `N#CC(C#N)=C1C([C-](C#N)C#N)=C1[C-](C#N)C#N.[Na+].[Na+]` [Compound 1, Hexacyano[3] radialene (Na2C6(CN)6)], in series [6] (dianion compound), the stability in air entry is “stable in air”. Besides, the “thermal stability of radical anion” value in series [6] (radical anion) is “above 180 °C”. Further, the “storage of radical anion in air” value in series [6] (radical anion, isolated via chemical oxidation) is “stored in air indefinitely”. In series [1], the Solubility was below 0.1 M and the “Radical Anion Solubility” value is below 25 mM. The same compound gave a solubility in water in series [1] (dianion) of 0.025 M. For the same compound, the “potential of one electron oxidation of dianion to radical anion” value in series [2] (cyclic voltammetry, aqueous pH 7) turned out to be 480 mV. Besides, in series [2], the “E^ox1/2” value turned out to be 0.48 V and the ipc/ipa is 1.03. In series [3], the Conductivity came to 13.2 mS/cm and the “Conductivity (value in parentheses)” value was “(0.147) mS/cm”. In series [7], the “diffusion coefficient for the electron transfer process” value is 3.71×10^−6 cm^2/s. Moreover, the “stability in aqueous solutions” value in series [4] (pH 7) is “stable”. Further, in series [4] (solutions of dianion and radical anion left five days), the “change in peak current height on standing” value is listed as “no significant changes in peak current height”.

(Values after US12630500B2, “Hexasubstituted radialene compounds and applications thereof” (THE UNIVERSITY OF NORTH CAROLINA AT CHARLOTTE, priority 2019, dated 2026).)
